Experimental data taken from US20260337245A1, “POLYPEPTIDE OR ANALOG THEREOF AND USE THEREOF” (Shenzhen Bay Laboratory, priority 2024, published 2026).
Starred links: 1 amine or outer side, 2 acyl side, 3 side chain; linkers in the order of their positions; H or OH if unused. Positions of bridges follow the written chain, without caps; N, C: chain ends. Non-standard residues stand in square brackets, D forms with d. Residues, ends and D or L forms follow the SMILES beside them. X1 = O=C(O)CCCCCCCCCCCCCCCCCCC(=O)N[C@@H](CCCCNC(=O)COCCOCCNC(=O)COCCOCCNC(=O)CCC(=O)N(CCNC(=O)C[*:1])CCNC(=O)C[*:2])C(=O)O; NMeR = CN[C@@H](CCCNC(=N)N)C(=O)O; Hyp = O=C(O)[C@@H]1C[C@@H](O)CN1; hArg = N=C(N)NCCCC[C@H](N)C(=O)O; αMeF = C[C@](N)(Cc1ccccc1)C(=O)O; αMeL = CC(C)C[C@](C)(N)C(=O)O; αMeK = C[C@](N)(CCCCN)C(=O)O; Orn = NCCC[C@H](N)C(=O)O; Aib = CC(C)(N)C(=O)O

What was measured:
CTR = target: T1, CTR (Homo sapiens, UniProt P30988); assay: HTRF cAMP assay, CTR; format: cell-based; conditions: HEK293/pGM-CREB-L-Luc/CTR pool, read-out: IC50 of receptor CTR
T1 construct: expressed in transfected cells
T1 sequence (P30988 25-474): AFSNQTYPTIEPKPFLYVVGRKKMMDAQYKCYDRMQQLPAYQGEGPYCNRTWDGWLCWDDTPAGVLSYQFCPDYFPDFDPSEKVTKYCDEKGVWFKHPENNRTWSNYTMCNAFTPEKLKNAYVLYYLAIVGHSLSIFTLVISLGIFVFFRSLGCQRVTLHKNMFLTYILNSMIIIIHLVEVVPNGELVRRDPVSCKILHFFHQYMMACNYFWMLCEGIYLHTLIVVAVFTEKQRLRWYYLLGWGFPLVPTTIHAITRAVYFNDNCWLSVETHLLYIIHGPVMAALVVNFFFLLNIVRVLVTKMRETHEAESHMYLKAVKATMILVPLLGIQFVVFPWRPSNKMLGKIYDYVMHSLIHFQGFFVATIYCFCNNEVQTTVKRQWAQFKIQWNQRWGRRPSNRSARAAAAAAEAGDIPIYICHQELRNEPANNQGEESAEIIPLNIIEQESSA
Excerpt: (§1) 2. The polypeptide derivatives prepared in Example 1 and Example 2 of the present disclosure can bind to the target AMYR and CTR receptors on the cell membrane, activate the receptors and release cAMP. Therefore, the activity of the analyte can be determined by using an HTRF (homogeneous time-resolved fluorescence) method and using a cAMP detection kit. The specific steps were as follows:
(§2) A stable transfected cell line of HEK293/pGM-CREB-L-Luc/AMY3R pool and HEK293/pGM-CREB-L-Luc/CTR pool was constructed. The polypeptide derivatives (i.e., AMY-001 to AMY-041) prepared in Examples 1 and 2 were subjected to 5-fold serial dilution from a maximum of 1000 nM to prepare a dilution series containing 8 to 11 concentration gradients. Cagrilintide and sCT were selected as positive controls for testing, and a dilution series was prepared according to the same method for testing. The test cell lines were selected and treated with cAMP-specific trypsin for digestion, and then suspended with 3 mL of serum-free DMEM medium by pipetting, and the cells were counted. 5 μL of IBMX (prepared with serum-free DMEM medium, 0.5 mM) and test cells (5 μL/7500 cells/well) were sequentially added to a 384-well plate, incubated under the conditions of 37° C., 5% CO2 for 30 minutes, then added with cAMP-d2 (5 μL, 1×) and Anti-cAMP-Cryptate (5 μL, 1×) and placed at room temperature for 1 hour. A HTRF value was determined by a chemiluminescence microplate reader, and the results were recorded. An activation curve was plotted using GraphPad Prism software to calculate an IC50 value of each polypeptide derivative. […] The IC50 values of some polypeptides were exemplarily shown in this example, see Table 3, FIG. 2 and FIG. 3 for details.

AMY3R = target: T2, AMY3R (Homo sapiens, UniProt P30988); assay: HTRF cAMP assay, AMY3R; format: cell-based; conditions: HEK293/pGM-CREB-L-Luc/AMY3R pool, read-out: IC50 of receptor AMY3R
T2 construct: expressed in transfected cells
T2 sequence (P30988 25-474): T1 sequence (P30988 25-474)
T2 sequence (O60896 24-148 partner): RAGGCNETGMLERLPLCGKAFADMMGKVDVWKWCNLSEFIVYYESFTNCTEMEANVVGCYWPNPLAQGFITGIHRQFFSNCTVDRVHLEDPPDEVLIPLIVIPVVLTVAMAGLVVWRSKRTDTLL
Excerpt: as §1, §2

SMILES	EC50 (CTR)	EC50 (AMY3R)
CC(=O)N[C@@H](C)C(=O)N[C@@H](CO)C(=O)N[C@@H](Cc1c[nH]cn1)C(=O)N[C@@H](CC(C)C)C(=O)N[C@@H](CO)C(=O)N[C@H](C(=O)N[C@@H](C)C(=O)N[C@H]1CSCC(=O)NCCN(C(=O)CCC(=O)NCCOCCOCC(=O)NCCOCCOCC(=O)NCCCC[C@H](NC(=O)CCCCCCCCCCCCCCCCCCC(=O)O)C(=O)O)CCNC(=O)CSC[C@@H](C(=O)N[C@@H](CC(C)C)C(=O)N[C@@H](Cc2c[nH]cn2)C(=O)N[C@@H](CCCN)C(=O)N[C@@H](CC(C)C)C(=O)NC(C)(C)C(=O)N[C@@H](CC(=O)O)C(=O)N[C@@](C)(Cc2ccccc2)C(=O)N2CCC[C@H]2C(=O)N[C@@H](CCCNC(=N)N)C(=O)N[C@H](C(=O)N[C@@H](CC(=O)O)C(=O)N[C@H](C(=O)NCC(=O)N[C@@H](C)C(=O)NCC(=O)N[C@@H](CO)C(=O)N2C[C@H](O)C[C@H]2C(N)=O)C(C)C)[C@@H](C)O)NC(=O)[C@H](C)NC(=O)[C@H](CO)NC(=O)[C@H](CC(C)C)NC(=O)[C@H](CCCNC(=N)N)NC(=O)CNC(=O)[C@H](CC(C)C)NC1=O)[C@@H](C)O [AMY-009, Ac-ASHLSTACLGRLSACLH-Orn-L-Aib-D-(αMeF)-PRTDVGAGS-Hyp-NH2] (Ac-ASHLSTACLGRLSACLH[Orn]L[Aib]D[αMeF]PRTDVGAGS[Hyp]-NH2; linker 8-15 via X1)	0.0894 nM	0.0414 nM
CC(=O)N[C@@H](C)C(=O)N[C@@H](CO)C(=O)N[C@@H](Cc1c[nH]cn1)C(=O)N[C@@](C)(CC(C)C)C(=O)N[C@@H](CO)C(=O)N[C@H](C(=O)N[C@@H](C)C(=O)N[C@H]1CSCC(=O)NCCN(C(=O)CCC(=O)NCCOCCOCC(=O)NCCOCCOCC(=O)NCCCC[C@H](NC(=O)CCCCCCCCCCCCCCCCCCC(=O)O)C(=O)O)CCNC(=O)CSC[C@@H](C(=O)N[C@@H](CC(C)C)C(=O)N[C@@H](Cc2c[nH]cn2)C(=O)N[C@@H](CCCCN)C(=O)N[C@@H](CC(C)C)C(=O)NC(C)(C)C(=O)N[C@@H](CC(=O)O)C(=O)N[C@@](C)(Cc2ccccc2)C(=O)N2CCC[C@H]2C(=O)N(C)[C@@H](CCCNC(=N)N)C(=O)N[C@H](C(=O)N[C@@H](CC(=O)O)C(=O)N[C@H](C(=O)NCC(=O)N[C@@H](C)C(=O)NCC(=O)N[C@@H](CO)C(=O)N2CCC[C@H]2C(N)=O)C(C)C)[C@@H](C)O)NC(=O)[C@H](C)NC(=O)[C@H](CO)NC(=O)[C@H](CC(C)C)NC(=O)[C@H](CCCNC(=N)N)NC(=O)CNC(=O)[C@H](CC(C)C)NC1=O)[C@@H](C)O [AMY-010, Ac-ASH-(aMeK)-STACLGRLSACLHKL-Aib-D-(αMeF)-P-(N-Me-R)-TDVGAGSP-NH2] (Ac-ASH[αMeL]STACLGRLSACLHKL[Aib]D[αMeF]P[NMeR]TDVGAGSP-NH2; linker 8-15 via X1)	0.0415 nM	0.0523 nM
CC(=O)N[C@@H](C)C(=O)N[C@@H](CO)C(=O)N[C@@H](Cc1c[nH]cn1)C(=O)N[C@@H](CC(C)C)C(=O)N[C@@H](CO)C(=O)N[C@H](C(=O)N[C@@H](C)C(=O)N[C@H]1CSCC(=O)NCCN(C(=O)CCC(=O)NCCOCCOCC(=O)NCCOCCOCC(=O)NCCCC[C@H](NC(=O)CCCCCCCCCCCCCCCCCCC(=O)O)C(=O)O)CCNC(=O)CSC[C@@H](C(=O)N[C@@H](CC(C)C)C(=O)N[C@@H](Cc2c[nH]cn2)C(=O)N[C@@](C)(CCCCN)C(=O)N[C@@H](CC(C)C)C(=O)NC(C)(C)C(=O)N[C@@H](CC(=O)O)C(=O)N[C@@H](Cc2ccc(O)cc2)C(=O)N2CCC[C@H]2C(=O)N(C)[C@@H](CCCNC(=N)N)C(=O)N[C@H](C(=O)N[C@@H](CC(=O)O)C(=O)N[C@H](C(=O)NCC(=O)N[C@@H](C)C(=O)NCC(=O)N[C@@H](CO)C(=O)N2CCC[C@H]2C(N)=O)C(C)C)[C@@H](C)O)NC(=O)[C@H](C)NC(=O)[C@H](CO)NC(=O)[C@H](CC(C)C)NC(=O)[C@H](CCCCNC(=N)N)NC(=O)CNC(=O)[C@H](CC(C)C)NC1=O)[C@@H](C)O [AMY-012, Ac-ASHLSTACLG-homoR-LSACLH-(αMeK)-L-Aib-DYP-(N-Me-R)-TDVGAGSP-NH2] (Ac-ASHLSTACLG[hArg]LSACLH[αMeK]L[Aib]DYP[NMeR]TDVGAGSP-NH2; linker 8-15 via X1)	0.0357 nM	0.0133 nM
CC(=O)N[C@@H](C)C(=O)N[C@@H](CO)C(=O)N[C@@H](Cc1c[nH]cn1)C(=O)N[C@@H](CC(C)C)C(=O)N[C@@H](CO)C(=O)N[C@H](C(=O)N[C@@H](C)C(=O)N[C@H]1CCCCNC(=O)CN(C(=O)CCCNC(=O)COCCOCCNC(=O)COCCOCCNC(=O)CC[C@H](NC(=O)CCCCCCCCCCCCCCCCCCC(=O)O)C(=O)O)CC(=O)NCCCC[C@@H](C(=O)N[C@@H](CC(C)C)C(=O)N[C@@H](Cc2c[nH]cn2)C(=O)N[C@@](C)(CCCCN)C(=O)N[C@@H](CC(C)C)C(=O)NC(C)(C)C(=O)N[C@@H](CC(=O)O)C(=O)N[C@@H](Cc2ccc(O)cc2)C(=O)N2CCC[C@H]2C(=O)N[C@@H](CCC(N)=O)C(=O)N[C@H](C(=O)N[C@@H](CC(=O)O)C(=O)N[C@H](C(=O)NCC(=O)N[C@@H](C)C(=O)NCC(=O)N[C@@H](CO)C(=O)N2C[C@H](O)C[C@H]2C(N)=O)C(C)C)[C@@H](C)O)NC(=O)[C@H](C)NC(=O)[C@H](CO)NC(=O)[C@H](CC(C)C)NC(=O)[C@H](CCCNC(=N)N)NC(=O)CNC(=O)[C@H](CC(C)C)NC1=O)[C@@H](C)O [AMY-021, Ac-ASHLSTAKLGRLSAKLH-(αMeK)-L-Aib-DYPQTDVGAGS-Hyp-NH2]	0.0012 nM	0.0044 nM
CC(=O)N[C@@H](C)C(=O)N[C@@H](CO)C(=O)N[C@@H](Cc1c[nH]cn1)C(=O)N[C@@H](CC(C)C)C(=O)N[C@@H](CO)C(=O)N[C@H](C(=O)N[C@@H](C)C(=O)N[C@H](C(=O)N[C@@H](CC(C)C)C(=O)NCC(=O)N[C@H]1CCCCNC(=O)CN(C(=O)COCCOCCNC(=O)CC[C@H](NC(=O)CCCCCCCCCCCCCCCCCCC(=O)O)C(=O)O)CC(=O)NCCCC[C@@H](C(=O)N[C@@H](CC(C)C)C(=O)NC(C)(C)C(=O)N[C@@H](CC(=O)O)C(=O)N[C@@H](Cc2ccc(O)cc2)C(=O)N2CCC[C@H]2C(=O)N[C@@H](CCC(N)=O)C(=O)N[C@H](C(=O)N[C@@H](CC(=O)O)C(=O)N[C@H](C(=O)NCC(=O)N[C@@H](C)C(=O)NCC(=O)N[C@@H](CO)C(=O)N2C[C@H](O)C[C@H]2C(N)=O)C(C)C)[C@@H](C)O)NC(=O)[C@H](Cc2c[nH]cn2)NC(=O)[C@H](CC(C)C)NC(=O)[C@H](CCC(=O)O)NC(=O)[C@H](C)NC(=O)[C@H](CO)NC(=O)[C@H](CC(C)C)NC1=O)C(C)C)[C@@H](C)O [AMY-022, Ac-ASHLSTAVLGKLSAELHKL-Aib-DYPQTDVGAGS-Hyp-NH2]	0.102 nM	0.0679 nM
